Where “and” joins values, the source holds several entries; their conditions need not be identical. Identical values can stand only once. Marks after values point to notes of the source that are not given here.
What was measured:
[1] = system: urate crystal induced synovitis of the stifle joint in dogs; assay: Urate crystal induced synovitis of the stifle joint in dogs, force plate analysis; format: in vivo, dog; conditions: for Z peak force of the injected rear leg, percent of pre-values, Mean: six dogs
Description: Objective: The objective of this study is to evaluate the analgesic and anti-inflammatory effect of a single dose of COMPOUND A using a model of urate crystal induced synovitis of the stifle joint in dogs via kinetic gait analysis (force plate).
Animals: A total of six Beagle dogs (4 males and 2 females) aged between 2 and 9 years and weighing 13 to 15.8 kg are recruited for this study. The dogs are housed in groups of two in light and temperature controlled pens. Each dogs is offered 150-300 g dry pellet food once a day in the morning. Water is available ad libitum through nipple drinkers.
Acute synovitis model: In this study, acute but reversible arthritis is induced by intra-articular (left or right stifle joint) injection of a saline (NaCl 0.9%) suspension containing 15 mg of monosodium urate crystals.
Intra-articular injections: Dogs are sedated with medetomidine (40 microg/kg, i.v.). The left of right stifle joint is clipped and prepared aseptically for intrasynovial injection. A 20-gauge needle is inserted lateral to the patellar ligament and introduced into the articular space. To ensure correct placement of the needle, a small amount of synovial fluid is aspirated with an empty 2 ml syringe. Then, approximately 2 ml of the monosodium urate suspension is injected in the joint cavity through the previously placed needle. Sedation is then antagonized with injection of atipamezol (40 μg/kg, i.v.). Dogs are then brought back to their pens for approximately 3 hours. Usually, after this period, the lameness induced by the injection of the monosodium urate crystals suspension is developed to a point where the dogs become non-weight-bearing on the injected leg during standing, walking and trotting. If at this time the dog's lameness grade is not sufficient, the dogs are excluded from this part of the trial.
Treatments: According to the protocol, both treatments are administered via the oral route approximately 3 hours after the injection of the monosodium urate crystals suspension, and only to the dogs that developed a high-grade lameness. For part 1, half of the dogs are allocated to the COMPOUND A-treated group and the other dogs are allocated to the control group. For part 2, treatments are crossed, so that dogs that are treated with COMPOUND A in part 1 are administered the placebo treatment, and vice versa. The treatments are administered at the doses of 0 mg/kg (placebo) and 2 mg/kg. COMPOUND A is mixed to a placebo formulation (micro-emulsion vehicle without active ingredient) just before administration. The appropriate volumes based on the dogs' bodyweights are given per os with syringes. Thereafter, all syringes are rinsed with NaCl 0.9% and applied to the dogs. The control dogs receive 10 ml of the identical placebo formulation.
Force plate analysis: A biomechanical platform (OR6-6-1000, Advanced Mechanical Technologies Inc., Watertown, Mass.) that measures 3 dimensional forces and impulses is used for our study. The dogs are trotted over the force plate 1, 2, 3, 4 and 6 hours after administration of the treatments to obtain data of vertical forces and impulses of the affected limb. Baseline values included force plate data obtained the day before the induction of lameness and are set as 100% of the dog's capacity. In order to minimize the effect of inter-individual variation we choose to calculate and express the measured data as percentage of the baseline values. By use of a software (Acquire Software 7.20e, Robert Wells, Mich. State University, East Lansing, Mich.) installed with the force plate and a computer, the vertical peak force (ZpkF) is measured. All data are normalized to the bodyweight of the dogs. Data on other ground reaction forces (e.g. vertical impulse, braking and propulsion peak forces) are also recorded and stored but not analyzed. Data from 5 to 6 valid trials of the injected limb at a given measurement time point are averaged and expressed as percentage of the pre-values. […]

[2] = system: developing Adjuvant-induced arthritis in rats; assay: Developing adjuvant-induced arthritis in rats (prophylactic dosing schedule); format: in vivo, rat; conditions: for % inhibition: day 0 to day 14; for Swelling (mm) ± SEM: day 0 to day 14, readout day 14
Description: Adjuvant arthritis can be treated using two different dosing schedules; either starting at the time of immunization with adjuvant (prophylactic dosing) or from day 15 when the arthritic response is already established (therapeutic dosing). It is more difficult to inhibit adjuvant arthritis with the therapeutic dosing schedule as compared to the prophylactic schedule. Both versions of adjuvant arthritis are, however, extremely sensitive to the effects of both non-selective COX inhibitors and COX 2 selective inhibitors where 70-90% inhibition of swelling can be achieved at appropriate doses. These models may be predictive for some of the processes thought to be relevant in rheumatoid arthritis.
Method: Female Wistar rats weighing 150-170 g (housed in standard conditions, 5 animals per cage, with food and water ad libitum) are injected i.d. at the base of the tail with 0.1 ml of mineral oil containing 0.6 mg of lyophilized heat-killed Mycobacterium tuberculosis. The rats are treated orally with COMPOUND A or placebo formulation from day 15 to day 22 (therapeutic dosing schedule) or with COMPOUND A from day 0 to day 14 after immunization (prophylactic dosing schedule). At the end of the experiment, the swelling of the tarsal joints is measured by means of a micro-caliper. For the comparison study to Diclofenac both compounds are given from day 15 to day 29 with readouts at day 22 and 29. Percentage inhibition of paw swelling is calculated by reference to placebo treated arthritic animals (0% inhibition) and placebo treated normal animals (100% inhibition). Five animals are used per group. Data are analyzed using Kruskal-Wallis non-parametric ANOVA followed by Dunn's Multiple Comparison test.

SMILES: COC1=Nc2cc(Cl)ccc2/C(=C/C(=O)O)c2sc(Cl)cc21 [COMPOUND A, [2,7-Dichloro-10-methoxy-3-thia-9-aza-benzo[f]azulen-(4Z)-ylidene]-acetic acid]
- Z peak force of the injected rear leg, percent of pre-values, individual dogs ([1]; 2 mg/kg p.o., T + 1 H): 0.0%
- Z peak force of the injected rear leg, percent of pre-values, Mean ([1]; 2 mg/kg p.o., T + 1 H): 0.0%
- Z peak force of the injected rear leg, percent of pre-values, individual dogs ([1]; 2 mg/kg p.o., T + 2 H): 0.0% (5×) and 65.8%
- Z peak force of the injected rear leg, percent of pre-values, Mean ([1]; 2 mg/kg p.o., T + 2 H): 11.0%
- Z peak force of the injected rear leg, percent of pre-values, individual dogs ([1]; 2 mg/kg p.o., T + 3 H): 86.7% and 93.8% and 71.9% and 79.1% and 0.0% (2×)
- Z peak force of the injected rear leg, percent of pre-values, Mean ([1]; 2 mg/kg p.o., T + 3 H): 55.2%
- Z peak force of the injected rear leg, percent of pre-values, individual dogs ([1]; 2 mg/kg p.o., T + 4 H): 80.9% and 87.1% and 103.1% and 82.5% and 58.2% and 0.0%
- Z peak force of the injected rear leg, percent of pre-values, Mean ([1]; 2 mg/kg p.o., T + 4 H): 68.6%
- Z peak force of the injected rear leg, percent of pre-values, individual dogs ([1]; 2 mg/kg p.o., T + 6 H): 78.5% and 106.1% and 87.7% and 85.2% and 83.7%
- Z peak force of the injected rear leg, percent of pre-values, Mean ([1]; 2 mg/kg p.o., T + 6 H): 91.2%
- Z peak force of the injected rear leg, percent of pre-values, individual dogs ([1]; Prevs (day before induction of lameness, set as 100%), 2 mg/kg p.o. group, dogs 519, 525, 652, 664, 2201, 2207): 100.0%
- Z peak force of the injected rear leg, percent of pre-values, Mean ([1]; Prevs (set as 100%), 2 mg/kg p.o. group): 100.0%
- % inhibition ([2]; 0.3 mg/kg p.o.): 14.3 * %
- Swelling (mm) ± SEM ([2]; 0.3 mg/kg p.o.): 10.9 ± 0.6 mm
- % inhibition ([2]; 1 mg/kg p.o.): 57.1 * %
- Swelling (mm) ± SEM ([2]; 1 mg/kg p.o.): 9.1 ± 0.5 mm
- % inhibition ([2]; 3 mg/kg p.o.): 88% and 88.1 ** %
- Swelling (mm) ± SEM ([2]; 3 mg/kg p.o.): 7.8 ± 0.2 mm
- ED50 ([2]; Rattus norvegicus, po, prophylactic dosing schedule, read-out: calculated ED50): 0.8 mg/kg
